Data published in patent US10100050B2 (CHIESI FARMACEUTICI S.P.A., priority 2015, dated 2018).
Where a name gives a salt, the structure may show the parent alone.

What was measured:
p38alpha = target: T1, p38alpha (Homo sapiens, UniProt Q16539); assay: P38alpha enzyme inhibition assay (Alphascreen kinase activity assay); format: biochemical; conditions: IC50 classes; 2 hours preincubation at 25° C., 250 μM ATP; read-out: p38α inhibition
T1 construct: purchased Invitrogen PV3304
Description: P38alpha Enzyme Inhibition Assay
The inhibitory activity of compounds was determined using an Alphascreen® (Perkin Elmer) based kinase activity assay. Kinase reactions consisted of 25 mM HEPES pH 7.5, 10 mM MgCl2, 100 μM Na3VO4, 2 mM DTT, 0.05 mg/ml Tween […] (Invitrogen, PV3304), 1% DMSO and 0.3 μg/ml ATF-2 fusion protein (New England Biolabs, 9224). Compounds were incubated under these conditions for 2 hours, at 25° C., prior to the initiation of the kinase activity by the addition of the 250 μM ATP. Reaction volumes were 20 uL. After 1 hr at 25° C. reactions were stopped by the adding 10 uL of 25 mM HEPES pH 7.5 containing 62.5 mM EDTA, 0.05% Triton X-100, 10% BSA and 0.83 ng/uL anti-phospho-ATF2 antibody (Abcam, ab28812). Detection was performed by measuring luminescence following the addition of Alphascreen Donor beads (Perkin Elmer 6765300) and Protein A Alphascreen Acceptor beads (Perkin Elmer 6760137), both at a final concentration of 20 ug/ml. IC50 values were determined from concentration-response curves.

[1] = tested on: Peripheral Blood Mononuclear Cells (PBMCs); assay: LPS-stimulated PBMC TNFα release assay; format: cell-based; conditions: IC50 classes; human PBMC, LPS 10 ng/ml, 18 h; read-out: LPS-stimulated PBMC TNFα release inhibition
Description: 1-10 nM ‘+’; • <1 nM ‘++’ LPS-Stimulated PBMC TNFα Release Assay
Peripheral Blood Mononuclear Cells (PBMCs) were isolated from healthy human volunteer blood using a standard density gradient centrifugation technique. Citrated blood was placed onto Histopaque™ and centrifuged. The PBMCs were removed from the density gradient interface and washed in phosphate buffered saline (PBS). The PBMCs were suspended in RPMI 1640 medium (without serum), dispensed into a 96-well plate and incubated at 37° C. for 3 h in a humidified incubator. After incubation, the medium was replaced (with medium containing 1% foetal bovine serum) and the plate incubated at 37° C., for 1 h, in the presence of test compound or the appropriate vehicle. LPS (10 ng/ml), or an appropriate vehicle control, was then added to the cells and the plate returned to the incubator for 18 h. Cell-free supernatants were removed and assayed for TNFα levels using MSD plates on the Sector Imager 6000 (MesoScale).
A dose response curve to each test compound was performed and the effect of compound in each experiment was expressed as a percentage inhibition of the control TNFα release. Dose response curves were plotted and compound potency (IC50) was determined. Compounds were tested in at least three separate experiments.

BEAS-2B cells = assay: TNFα-stimulated BEAS-2B IL-8 release assay; format: cell-based; conditions: Homo sapiens, IC50 classes, TNF-α 10 ng/ml, 18 h, read-out: TNFα-stimulated BEAS-2B IL-8 release inhibition
Description: TNFα-Stimulated BEAS-2B IL-8 Release Assay
Human bronchial epithelial cell line BEAS-2B was purchased from Sigma (St. Louis, Mo.). BEAS-2B cells were cultured in Bronchial Epithelial cell Growth Medium (BEGM), prepared by supplementing Bronchial Epithelial Basal Medium with SingleQuotes™ (Lonza, Switzerland), which contains retinoic acid, epidermal growth factor, epinephrine, transferrin, triiodothyronin, insulin, hydrocortisone, antimicrobial agents, and bovine pituitary extract. In addition, BEGM medium was supplemented with 2 mM glutamine, 100 U penicillin and 100 μg/ml streptomycin (Life Technologies), in an atmosphere of 95% air and 5% CO2 at 37° C.
BEAS-2B were seeded in 48-well plates at the density of 3×10^4 cells per well, grown to approximately 80-90% confluence. Cells were pre-incubated with p38 inhibitors for 1 hour and then stimulated with TNF-α (10 ng/ml) for 18 h at 37° C. with 5% CO2. Subsequently, supernatants were collected and used for measuring IL-8 levels using a paired antibody quantitative ELISA kit purchased from Life Technologies (detection limit: […]). All the treatments were performed at least in quadruplicate.
A concentration-response curve to each test compound was performed and the effect of compound in each experiment was expressed as a percentage inhibition of the control IL-8 release. Compound potency (IC50) was calculated by the analysis of the sigmoidal dose-response curve (variable slope) elaborated by Graph Pad PRISM4 program.

T1 sequence (Q16539 whole entry): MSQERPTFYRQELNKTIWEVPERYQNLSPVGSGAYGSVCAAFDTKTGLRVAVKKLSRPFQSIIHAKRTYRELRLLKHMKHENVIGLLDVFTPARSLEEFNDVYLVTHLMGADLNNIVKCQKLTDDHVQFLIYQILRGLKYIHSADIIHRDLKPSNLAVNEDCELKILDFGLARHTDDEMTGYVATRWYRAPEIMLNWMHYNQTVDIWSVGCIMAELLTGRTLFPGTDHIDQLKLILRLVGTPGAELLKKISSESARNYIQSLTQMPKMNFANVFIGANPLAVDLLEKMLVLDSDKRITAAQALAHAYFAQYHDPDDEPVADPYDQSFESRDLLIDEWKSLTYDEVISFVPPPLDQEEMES

Row | Compound | IC50 (p38alpha) | IC50 [1] | IC50 (BEAS-2B cells)
1 | COc1ccc(C(C)(C)C)cc1NC(=O)N[C@H]1CC[C@@H](Oc2ccc3nnc([C@@H]4CCCN4C)n3c2)c2ccccc21 [Example 1, hydrochloride salt] | < 1 nM | < 1 nM | < 0.3 nM
2 | COc1c(CO)cc(C(C)(C)C)cc1NC(=O)N[C@H]1CC[C@@H](Oc2ccc3nnc([C@@H]4CCCN4C)n3c2)c2ccccc21 [Example 2, 1-(5-tert-Butyl-3-hydroxymethyl-2-methoxy-phenyl)-3-{(1S,4R)-4-[-3-((S)-1-methyl-pyrrolidin-2-yl)-[1,2,4]triazolo[4,3-a]pyridin-6-yloxy]-1,2,3,4-tetrahydro-naphthalen-1-yl}-urea] | < 1 nM | < 1 nM | < 0.3 nM
3 | COc1c(CO)cc(C(C)(C)C)cc1NC(=O)N[C@H]1CC[C@@H](Oc2ccc3nnc([C@]4(C)CCCN4C)n3c2)c2ccccc21 [Example 3, 1-(5-tert-Butyl-3-hydroxymethyl-2-methoxy-phenyl)-3-{(1S,4R)-4-[-3-((S)-1,2-dimethyl-pyrrolidin-2-yl)-[1,2,4]triazolo[4,3-a]pyridin-6-yloxy]-1,2,3,4-tetrahydro-naphthalen-1-yl}-urea hydrochloride salt] | < 1 nM | < 1 nM | < 0.3 nM
4 | COc1c(CO)cc(C(C)(C)C)cc1NC(=O)N[C@H]1CC[C@@H](Oc2ccc3nnc(C(C)(C)N(C)C)n3c2)c2ccccc21 [Example 4, 1-(5-tert-Butyl-3-hydroxymethyl-2-methoxy-phenyl)-3-{(1S,4R)-4-[3-(1-dimethylamino-1-methyl-ethyl)-[1,2,4]triazolo[4,3-a]pyridin-6-yloxy]-1,2,3,4-tetrahydro-naphthalen-1-yl}-urea hydrochloride salt] | < 1 nM | < 1 nM | < 0.3 nM
5 | COc1c(CO)cc(C(C)(C)C)cc1NC(=O)N[C@H]1CC[C@@H](Oc2ccc3nnc([C@@H]4CCCCN4C)n3c2)c2ccccc21 [Example 5, 1-(5-tert-Butyl-3-hydroxymethyl-2-methoxy-phenyl)-3-{(1S,4R)-4-[3-((S)-1-methyl-piperidin-2-yl)-[1,2,4]triazolo[4,3-a]pyridin-6-yloxy]-1,2,3,4-tetrahydro-naphthalen-1-yl}-urea] | 1 to 10 nM | < 1 nM | < 0.3 nM
6 | COc1c(CO)cc(C(C)(C)C)cc1NC(=O)N[C@H]1CC[C@@H](Oc2ccc3nnc([C@@H]4CCCN4C(C)C)n3c2)c2ccccc21 [Example 6, 1-(5-tert-Butyl-3-hydroxymethyl-2-methoxy-phenyl)-3-{(1S,4R)-4-[3-((S)-1-isopropyl-pyrrolidin-2-yl)-[1,2,4]triazolo[4,3-a]pyridin-6-yloxy]-1,2,3,4-tetrahydro-naphthalen-1-yl}-urea] | 1 to 10 nM | < 1 nM | < 0.3 nM
7 | CNC(=O)c1cc(C(C)(C)C)cc(NC(=O)N[C@H]2CC[C@@H](Oc3ccc4nnc([C@@H]5CCCN5C)n4c3)c3ccccc32)c1OC [Example 7, 5-tert-Butyl-2-methoxy-N-methyl-3-(3-{(1S,4R)-4-[3-((S)-1-methyl-pyrrolidin-2-yl)-[1,2,4]triazolo[4,3-a]pyridin-6-yloxy]-1,2,3,4-tetrahydro-naphthalen-1-yl}-ureido)-benzamide hydrochloride salt] | < 1 nM | < 1 nM | 0.3 to 1 nM
8 | COc1c(NC(C)=O)cc(C(C)(C)C)cc1NC(=O)N[C@H]1CC[C@@H](Oc2ccc3nnc([C@]4(C)CCCN4C)n3c2)c2ccccc21 [Example 8, N-[5-tert-Butyl-3-(3-{(1S,4R)-4-[3-((S)-1,2-dimethyl-pyrrolidin-2-yl)-[1,2,4]triazolo[4,3-a]pyridin-6-yloxy]-1,2,3,4-tetrahydro-naphthalen-1-yl}-ureido)-2-methoxy-phenyl]-acetamide] | 1 to 10 nM | < 1 nM | < 0.3 nM
9 | COc1c(NC(C)=O)cc(C(C)(C)C)cc1NC(=O)N[C@H]1CC[C@@H](Oc2ccc3nnc([C@@H]4CCCN4C(C)C)n3c2)c2ccccc21 [Example 9, N-[5-tert-Butyl-3-(3-{(1S,4R)-4-[3-((S)-1-isopropyl-pyrrolidin-2-yl)-[1,2,4]triazolo[4,3-a]pyridin-6-yloxy]-1,2,3,4-tetrahydro-naphthalen-1-yl}-ureido)-2-methoxy-phenyl]-acetamide] | 1 to 10 nM | < 1 nM | < 0.3 nM
10 | COc1c(NC(C)=O)cc(C(C)(C)C)cc1NC(=O)N[C@H]1CC[C@@H](Oc2ccc3nnc(C(C)(C)N(C)C)n3c2)c2ccccc21 [Example 10, N-[5-tert-Butyl-3-(3-{(1S,4R)-4-[3-(1-dimethylamino-1-methyl-ethyl)-[1,2,4]triazolo[4,3-a]pyridin-6-yloxy]-1,2,3,4-tetrahydro-naphthalen-1-yl}-ureido)-2-methoxy-phenyl]-acetamide] | 1 to 10 nM | < 1 nM | < 0.3 nM
11 | COc1c(NC(C)=O)cc(C(C)(C)C)cc1NC(=O)N[C@H]1CC[C@@H](Oc2ccc3nnc([C@@H]4CCCN4C)n3c2)c2ccccc21 [Example 11, N-[5-tert-Butyl-2-methoxy-3-(3-{(1S,4R)-4-[3-((S)-1-methyl-pyrrolidin-2-yl)-[1,2,4]triazolo[4,3-a]pyridin-6-yloxy]-1,2,3,4-tetrahydro-naphthalen-1-yl}-ureido)-phenyl]-acetamide] | < 1 nM | < 1 nM | > 1 nM
12 | COc1c(NC(C)=O)cc(C(C)(C)C)cc1NC(=O)N[C@H]1CC[C@@H](Oc2ccc3nnc([C@@H]4CCCCN4C)n3c2)c2ccccc21 [Example 12, N-[5-tert-Butyl-2-methoxy-3-(3-{(1S,4R)-4-[3-((S)-1-methyl-piperidin-2-yl)-[1,2,4]triazolo[4,3-a]pyridin-6-yloxy]-1,2,3,4-tetrahydro-naphthalen-1-yl}-ureido)-phenyl]-acetamide] | < 1 nM | 1 to 5 nM | 0.3 to 1 nM
13 | CCS(=O)(=O)Nc1cc(C(C)(C)C)cc(NC(=O)N[C@H]2CC[C@@H](Oc3ccc4nnc(C(C)(C)N(C)C)n4c3)c3ccccc32)c1OC [Example 13, Ethanesulfonic acid [5-tert-butyl-3-(3-{(1S,4R)-4-[3(1-dimethylamino-1-methyl-ethyl)-[1,2,4]triazolo[4,3-a]pyridin-6-yloxy]-1,2,3,4-tetrahydro-naphthalen-1-yl}-ureido)-2-methoxy-phenyl]-amide hydrochloride salt] | 1 to 10 nM | < 1 nM | < 0.3 nM
14 | COC(=O)c1cc(NC(=O)N[C@H]2CC[C@@H](Oc3ccc4nnc([C@]5(C)CCCN5C)n4c3)c3ccccc32)cc(C(C)(C)C)c1 [Example 41, 3-tert-Butyl-5-(3-{(1S,4R)-4-[3-((S)-1,2-dimethyl-pyrrolidin-2-yl)-[1,2,4]triazolo[4,3-a]pyridin-6-yloxy]-1,2,3,4-tetrahydro-naphthalen-1-yl}-ureido)-benzoic acid methyl ester] | 1 to 10 nM |  | < 0.3 nM
